Patent publication US9376470B2, “Polypeptide having angiogenesis-inducing activity and antibacterial activity, and use thereof for medical purposes” (FunPep Inc., priority 2008, dated 2016)
Peptide text beside a SMILES is read from it.

Assays:
Format in all cases: cell-based
[1] = test system: Pseudomonas aeruginosa ATCC27853; test: Antibacterial activity, ATP assay (BacTiter-Glo); details: Table 4-1; ATP assay concentration: peptides 10, TOB 1.0, CPFX 1.0, OX 0.5, MEPM 1.0 μg/ml
Method: (§1) The antibacterial activity of the polypeptides was measured using an ATP assay method. That is, using BacTiter-Glo Microbial Cell Viability Assay kit available from PROMEGA, the antibacterial activity of the peptides was evaluated from the viability of bacteria. […] With respect to the strains, Staphylococcus aureus ATCC29213 (S. aureus ATCC29213) as Gram-positive bacteria, or, alternatively, Pseudomonas aeruginosa (P. aeruginosa ATCC27853) as Gram-negative bacteria, was used. The bacteria were cultured in media for 3 to 4 hours, and thereafter absorbances at A600 were measured. Bacterial suspensions were diluted with Mueller-Hinton broth (MHB) according to McFarland #0.5. Each strain was added so as to attain about 0.5−1×10^5 CFU/mL (final concentration) in terms of Escherichia coli. […] A solution to which the peptides were not added was considered as a negative control, and a solution to which tobramycin (TOB) was added was considered as a positive control. […] Relative values were calculated by comparison with the negative control, and these values were regarded as the viability. ATP (%) of the antibacterial activity was measured in the same manner as mentioned above, and the “minimum inhibitory concentration (MIC)” was measured as follows. MIC is the lowest concentration of an agent that may inhibit the growth of a bacterium. MIC is used as a parameter for the efficacy of an antibacterial agent, for the strength of bacterial sensitivity, or the like. The bacteria can grow (proliferate) when the concentration is not higher than MIC, and cannot grow when the concentration is higher than MIC. Its measurement is carried out according to a method defined as a standard method by Japanese Society of Chemotherapy or CLINICAL AND LABORATORY […] (CLSI), but, in this Example, its measurement was carried out by a broth microdilution method in accordance with “M100-S17/M7-A7” (Performance Standards for Antimicrobial Susceptibility Testing; Seventeenth Informational Supplement, Vol. 27 No. 1) published by CLSI on January, 2007. That is, sensitivity test of agents was carried out using a microtiter plate or test tubes. With respect to each strain, Escherichia coli: ATCC 25922 (Escherichia coli ATCC 25922), Pseudomonas aeruginosa: ATCC 27853 (Pseudomonas aeruginosa ATCC 27853), Staphylococcus aureus: ATCC29213 (Staphylococcus aureus ATCC29213), Klebsiella pneumoniae: JCM 1662 (Klebsiella pneumoniae JCM 1662), enterobacteria (1): JCM 1232 (Enterobacter cloacae JCM 1232), enterobacteria (2): JCM 1235 (Enterobacter aerogenes JCM 1235), and Staphylococcus epidermidis: JCM 2414 (Staphylococcus epidermidis JCM 2414), were used. […] As the concentrations of the agents in ATP assay, the concentrations as described in the Tables were used.

[2] = test system: Klebsiella pneumoniae JCM 1662; test: Antibacterial activity, ATP assay (BacTiter-Glo); details: ATP assay concentration: peptides 10, TOB 4.0, CPFX 1.0, OX 0.5, MEPM 8.0 μg/ml
Method: (§2) That is, using BacTiter-Glo Microbial Cell Viability Assay kit available from PROMEGA, the antibacterial activity of the peptides was evaluated from the viability of bacteria. […] With respect to the strains, Staphylococcus aureus ATCC29213 (S. aureus ATCC29213) as Gram-positive bacteria, or, alternatively, Pseudomonas aeruginosa (P. aeruginosa ATCC27853) as Gram-negative bacteria, was used. The bacteria were cultured in media for 3 to 4 hours, and thereafter absorbances at A600 were measured. Bacterial suspensions were diluted with Mueller-Hinton broth (MHB) according to McFarland #0.5. Each strain was added so as to attain about 0.5−1×10^5 CFU/mL (final concentration) in terms of Escherichia coli. […] A solution to which the peptides were not added was considered as a negative control, and a solution to which tobramycin (TOB) was added was considered as a positive control. […] Relative values were calculated by comparison with the negative control, and these values were regarded as the viability. […] ATP (%) of the antibacterial activity was measured in the same manner as mentioned above, and the “minimum inhibitory concentration (MIC)” was measured as follows. MIC is the lowest concentration of an agent that may inhibit the growth of a bacterium. MIC is used as a parameter for the efficacy of an antibacterial agent, for the strength of bacterial sensitivity, or the like. The bacteria can grow (proliferate) when the concentration is not higher than MIC, and cannot grow when the concentration is higher than MIC. Its measurement is carried out according to a method defined as a standard method by Japanese Society of Chemotherapy or CLINICAL AND LABORATORY […] (CLSI), but, in this Example, its measurement was carried out by a broth microdilution method in accordance with “M100-S17/M7-A7” (Performance Standards for Antimicrobial Susceptibility Testing; Seventeenth Informational Supplement, Vol. 27 No. 1) published by CLSI on January, 2007. That is, sensitivity test of agents was carried out using a microtiter plate or test tubes. With respect to each strain, Escherichia coli: ATCC 25922 (Escherichia coli ATCC 25922), Pseudomonas aeruginosa: ATCC 27853 (Pseudomonas aeruginosa ATCC 27853), Staphylococcus aureus: ATCC29213 (Staphylococcus aureus ATCC29213), Klebsiella pneumoniae: JCM 1662 (Klebsiella pneumoniae JCM 1662), enterobacteria (1): JCM 1232 (Enterobacter cloacae JCM 1232), enterobacteria (2): JCM 1235 (Enterobacter aerogenes JCM 1235), and Staphylococcus epidermidis: JCM 2414 (Staphylococcus epidermidis JCM 2414), were used. […] As the concentrations of the agents in ATP assay, the concentrations as described in the Tables were used.

[3] = test system: Enterobacteria (2): Enterobacter aerogenes JCM 1235; test: Antibacterial activity, ATP assay (BacTiter-Glo); details: ATP assay concentration: peptides 10, TOB 4.0, CPFX 1.0, OX 4.0, MEPM 8.0 μg/ml
Method: as §2

[4] = test system: Escherichia coli ATCC 25922; test: Antibacterial activity, ATP assay (BacTiter-Glo); details: ATP assay concentration: peptides 10, TOB 1.0, CPFX 0.015, OX 0.5, MEPM 0.1 μg/ml
Method: as §2

[5] = test system: Staphylococcus epidermidis JCM 2414; test: Antibacterial activity, ATP assay (BacTiter-Glo); details: ATP assay concentration: peptides 10, TOB 1.0, CPFX 0.5, OX 0.5, MEPM 0.125 μg/ml
Method: as §2

[6] = test system: human vascular endothelial cells and fibroblast cells (co-culture); test: Lumen formation with angiogenesis kit KZ-1000 (section 7); details: day 11
Method: Using an angiogenesis kit available from KURABO […] LTD. (Product No.: KZ-1000), lumen formation by the polypeptides was evaluated. Vascular endothelial growth factor A (VEGF-A) as a positive control, and polypeptide-free, unstimulated group as a negative control, were used.
Using a special medium for angiogenesis which was attached to the kit, each polypeptide was prepared such that the concentration thereof was respectively 0.5, 2.5 and 10 μg/mL. To a 24-well plate in which cells were plated (the cells were those obtained by co-culturing human vascular endothelial cells and fibroblast cells at an optimum concentration) which was attached to the kit, the special medium for angiogenesis containing each polypeptide was added, and the cells were cultured at 37° C. under 5% CO2. The medium was replaced with a medium containing the same additive on day 4, day 7 and day 9 of culture. On day 11 from the beginning of the culture, staining was performed using a kit for staining lumina (for CD31 antibody staining) according to the following procedure.
The media were removed, and washing was performed with Dulbecco's phosphate buffered saline (PBS(−)). Thereafter, ice-cooled 70% ethanol was added to the plate, and the cells were fixed. Each well was washed with a blocking solution (Dulbecco's phosphate buffered saline (PBS(−)) containing 1% BSA). To each well, 0.5 mL of the primary antibody for CD31 staining (mouse anti-human CD31 antibody) 4000-fold diluted with the blocking solution was added, and then the plate was incubated for 60 minutes at 37° C. After the completion of the incubation, each well was washed totally 3 times with 1 mL of the blocking solution. Then, 0.5 mL of the secondary antibody solution (goat anti-mouse IgG/alkaline phosphatase conjugate) 500-fold diluted with the blocking solution was added to each well. The plate was incubated for 60 minutes at 37° C., and thereafter each well was washed 3 times with 1 mL of distilled water. During that period, 2 tablets of BCIP/NBT were dissolved into distilled water, and the obtained solution was filtered through a filter having a pore size of […] to prepare a substrate solution. To each well, 0.5 mL of the prepared BCIP/NBT substrate solution was added, and the plate was incubated at 37° C. until the lumina turned to deep purple (typically for 5-10 minutes). After the completion of the incubation, each well was washed 3 times with 1 mL of distilled water. After washing, the washing solution was removed by aspiration, and the plate was left to stand and dry naturally. After drying, photographs of each well were taken under a microscope.
Each of the obtained images was quantified using an angiogenesis quantification software. The area and length of formed lumina observed in each visual field were measured on the basis of the scale of an angiogenesis quantification software available from KURABO […] LTD. (angiogenesis quantification software Ver 1.0), and evaluated on the basis of the ratio of the area or length of polypeptide-containing groups relative to the area or length of the negative control group.

[7] = test system: Staphylococcus aureus ATCC29213; test: Antibacterial activity, ATP assay (BacTiter-Glo); details: 10 μg/mL, ATP assay
Method: as §1

[8] = VEGF-A positive control, concentration not given

O=C(O)c1cn(C2CC2)c2cc(N3CCNCC3)c(F)cc2c1=O [CPFX, ciprofloxacin, reference compound]
ATP (%) mean, Pseudomonas aeruginosa [1]: 2.3%
ATP (%) mean, Klebsiella pneumoniae [2]: 8.2%
ATP (%) mean, Enterobacteria (2) [3]: 3.2%
ATP (%) mean, Escherichia coli [4]: 15.4%
ATP (%) mean, Staphylococcus epidermidis [5]: 7.3%

Vascular endothelial growth factor A [VEGF-A]
The Area of Lumina (relative value, negative control as 100) [6, 8]: 189.2
The Length of Lumina (relative value, negative control as 100) [6, 8]: 169.8

CSCC[C@H](N)C(=O)N[C@@H](CCCNC(=N)N)C(=O)N[C@@H](CCCCN)C(=O)N[C@@H](CCCNC(=N)N)C(=O)N[C@@H](CC(C)C)C(=O)N[C@@H](CCCCN)C(=O)N[C@@H](CCCNC(=N)N)C(=O)N[C@@H](CCCCN)C(=O)N[C@@H](CC(C)C)C(=O)N[C@@H](CCCNC(=N)N)C(=O)N[C@@H](CC(C)C)C(=O)N[C@@H](Cc1c[nH]c2ccccc12)C(=O)N[C@@H](Cc1c[nH]cn1)C(=O)N[C@@H](CCCNC(=N)N)C(=O)N[C@@H](CCCCN)C(=O)N[C@@H](CCCNC(=N)N)C(=O)N[C@@H](Cc1ccc(O)cc1)C(=O)N[C@@H](CCCCN)C(N)=O [SR-6] (H-MRKRLKRKLRLWHRKRYK-NH2; N-terminus assumed)
antibacterial activity against Staphylococcus aureus compared with AG30-5C [7]: higher antibacterial activity against Staphylococcus aureus than AG30-5C
The Area of Lumina (relative value, negative control as 100) ([6]; polypeptide 0.5 μg/mL): 97.3
The Length of Lumina (relative value, negative control as 100) ([6]; polypeptide 0.5 μg/mL): 98.4
The Area of Lumina (relative value, negative control as 100) ([6]; polypeptide 10 μg/mL): 98.6
The Length of Lumina (relative value, negative control as 100) ([6]; polypeptide 10 μg/mL): 96.6
